In PubChem BioAssay (NCI):
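Following 48 hours of exposure in 96-well plates, responses at five concentrations were used to interpolate endpoints linearly. TGI: concentration producing complete growth inhibition.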

Legend:
Assay in all cases: NCI tumour cell line growth inhibition, 48 h
NCI-H226 lung = tested on: NCI-H226 lung
U251 CNS = tested on: U251 CNS
KM20L2 colon = tested on: KM20L2 colon
DLD-1 colon = tested on: DLD-1 colon
SNB-78 CNS = tested on: SNB-78 CNS
786-0 renal = tested on: 786-0 renal
P388 leukemia = tested on: P388 leukemia
DMS 114 small cell lung = tested on: DMS 114 small cell lung
DMS 273 small cell lung = tested on: DMS 273 small cell lung
SN12K1 renal = tested on: SN12K1 renal
P388/ADR leukemia = tested on: P388/ADR leukemia
M19-MEL melanoma = tested on: M19-MEL melanoma
XF 498 CNS = tested on: XF 498 CNS

| Structure (SMILES) | TGI (NCI-H226 lung) [µM] | TGI (U251 CNS) [µM] | TGI (KM20L2 colon) [µM] | TGI (DLD-1 colon) [µM] | TGI (DMS 114 small cell lung) [µM] | other results |
| --- | --- | --- | --- | --- | --- | --- |
| O=c1cnn(C/C=C/CP(=O)(O)O)c(=O)[nH]1 | > 100 | > 100 |  |  |  |  |
| COc1cccc(N2C(=O)CSC2c2c[nH]c3ccccc23)c1 (stereo unspecified) |  | > 100 |  |  |  |  |
| CCOC(=O)c1csc(NC(=O)CN2CCCCC2)n1 |  | > 100 |  |  |  |  |
| COC(=O)C1C(O)C(C)C(O)C(C)/C=C\C=C(C)C(=O)Nc2c(C)c(OC(C)=O)c3c(c2O)C(=O)C(C)=C2OCOC(=C23)C(C)=CC(C)(O)C(O)C(C)C1O (stereo unspecified) | > 100 | > 100 | > 72.8 | 31.4 | 52.6 | TGI (SNB-78 CNS): > 75 µM; TGI (786-0 renal): > 100 µM; TGI (P388 leukemia): 47.1 µM; TGI (DMS 273 small cell lung): > 75 µM; TGI (SN12K1 renal): > 63.3 µM; TGI (P388/ADR leukemia): > 58.5 µM |
| CC(C)OP(=O)(OC(C)C)c1nn(-c2ccc([N+](=O)[O-])cc2)c(=N)s1 |  | > 100 | > 100 | > 100 | > 100 | TGI (M19-MEL melanoma): > 100 µM; TGI (XF 498 CNS): > 100 µM |
